Results as given in patent publication EP0603240B1, “SAFENING HERBICIDAL PYRAZOLYLSULFONYLUREAS” (priority 1991, dated 1993).

Assays:
Type in all cases: in vivo
[1] = test system: velvetleaf (Abutilon theophrasti); assay: Example 11, Procedure II: Herbicide No. 1 + metazachlor (No. 14) with antidotes
corn [2] = assay: Example 7, Procedure II: Herbicide No. 1 + metolachlor (No. 12) with antidotes
Method in brief: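 Herbicide plus antidote, applied in acetone, mixed into silt loam top soil used to cover corn seed beds, with untreated and herbicide-only controls. After incorporation, containers got overhead irrigation equal to 0.6 cm rainfall, then sub-irrigation in greenhouse. Percent injury scored; antidote efficacy is injury difference; duplicate averages.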

[3] = test system: barnyardgrass (Echinochloa crusgalli); assay: Example 6, Procedure II: Herbicide No. 1 + alachlor (No. 7) with antidotes
Method: (§1) Containers were filled and compacted with a fumigated silt loam top soil to a depth of about 1.3 cm from the top of the container. A first container was designated as an untreated control, a second container was designated as a herbicide control, and a third container was designated as a herbicide + antidote test container. Each of the containers was seeded with a crop species. A measured amount of herbicide dispersed or dissolved in acetone was applied to a measured quantity of soil. To this same quantity of soil treated with herbicide, there was added a measured amount of antidote dispersed or dissolved in acetone. The quantity of soil treated with the herbicide and antidote was thoroughly mixed to incorporate the herbicide and antidote in the soil uniformly. The seed bed in the third container of soil was covered with the soil treated with the herbicide and antidote and the container was leveled. For each test series, the seed beds of the first and second containers were likewise covered by soil layers. the cover layer of the first container was not treated with herbicide or antidote.
(§2) The containers were then placed on a bench in a greenhouse and sub-irrigated as required for the duration of the test. […] Plant response is measured in terms of percent injury. Antidote efficacy is indicated as the difference in plant injury by the herbicide(s) without the antidote and with the antidote.
(§3) This procedure is the same as Procedure I, but modified in the manner that after incorporation of the chemicals (herbicide and antidote) the containers with the covered seedbed were treated with an initial overhead irrigation equivalent to 0.6 cm rainfall, then subsequently sub-irrigated as required on greenhouse benches.
(§4) In the series of greenhouse tests described below, for routine screening purposes the herbicide/antidote compositions were tested in crop/weed combinations involving corn as the crop and either or both of the weeds barnyardgrass (Echinochloa crusgalli), a monocotyledonous weed, and velvetleaf (Abutilon theophrasti), a dicotyledonous weed. In the tables below, these weeds are indicated by the symbols "BYG" and "VL", respectively.
(§5) This example was designed to investigate the antidotal efficacy of a plurality of antidotal compounds against a composition comprising Herbicide No. 1 in combination with Herbicide No. 7 (alachlor). The antidotal compounds used herein were Nos. 1, 2, 7, 13 and 15.
(§6) In this example, Procedure II described above was followed. The data from the tests in this example is shown in Table 6 and represents averages of duplicate replications.

[4] = test system: velvetleaf (Abutilon theophrasti); assay: as above
Method: as §1, §2, §3, §4, §5, §6

corn [5] = assay: Example 9, Procedure II: Herbicide No. 1 + pretilachlor (No. 13) with antidotes
Method: as §1, §2, §3
In this example the safening effect on a composition comprising Herbicide No. 1 and another leading rice herbicide, i.e., Herbicide No. 13, was investigated using the same antidotes and test procedure described in the preceding example. Herbicide No. 13 is pretilachlor, active ingredient used in the commercial rice herbicides RIFIT®, SOFIT® and SOFIT® SUPER.

corn [6] = assay: Example 18, Procedure II: Herbicide No. 1 + ERADICANE (EPTC + R-25788) with auxiliary antidotes
Method: as §1, §2, §3
(§7) In the test reported in this example, the herbicidal composition was similar to that used in Example 16 in that Herbicide No. 1 was combined with EPTC (Herbicide No. 4) as a co-herbicide and the antidotes included Nos. 1, 2, 7, 13 and 15. However, in this test the EPTC was introduced as a formulation of ERADICANE (EPTC + the antidote R-25788, i.e., Antidote No. 1) at an application rate of 8.96 kg/ha. Thus, in this test two antidotes were present, viz. R-25788 and one of the auxilliary antidotes, No. 2, 13 and 15.
Test procedures were those of Procedure II above.

[7] = test system: barnyardgrass (Echinochloa crusgalli); assay: Example 19, Procedure II: Herbicide No. 1 + ERADICANE EXTRA with added antidotes
Method: as §1, §2, §3, §4, §7
(§8) The test reported in this example was performed in the same manner and with the same antidotes used in Example 18, the only difference being the substitution of the commercial herbicidal product ERADICANE® EXTRA for ERADICANE®. ERADICANE EXTRA is a formulation containing both an antidote, i.e., R-29148 (Antidote No. 5 herein), and an extender, dietholate.

[8] = test system: velvetleaf (Abutilon theophrasti); assay: as above
Method: as §1, §2, §3, §4, §7, §8

[9] = Herbicide No.1 0.56 kg/ha + Herbicide No.14 3.36 kg/ha, antidote rate 2.24 kg/ha
[10] = Herbicide No.1 0.56 kg/ha + Herbicide No.14 3.36 kg/ha, antidote rate 8.96 kg/ha
[11] = Herbicide No.1 1.12 kg/ha + Herbicide No.14 3.36 kg/ha, antidote rate 2.24 kg/ha
[12] = Herbicide No.1 1.12 kg/ha + Herbicide No.14 3.36 kg/ha, antidote rate 8.96 kg/ha
[13] = Herbicide No.1 0.14 + No.12 3.36 kg/ha + antidote 2.24 kg/ha
[14] = Herbicide No.1 0.14 + No.12 3.36 kg/ha + antidote 8.96 kg/ha
[15] = Herbicide No.1 0.56 + No.12 3.36 kg/ha + antidote 2.24 kg/ha
[16] = Herbicide No.1 0.56 + No.12 3.36 kg/ha + antidote 8.96 kg/ha
[17] = Herbicide No.1 0.14 + No.7 4.48 kg/ha + antidote 2.24 kg/ha
[18] = Herbicide No.1 0.14 + No.7 4.48 kg/ha + antidote 8.96 kg/ha
[19] = Herbicide No.1 0.56 + No.7 4.48 kg/ha + antidote 2.24 kg/ha
[20] = Herbicide No.1 0.56 + No.7 4.48 kg/ha + antidote 8.96 kg/ha
[21] = Herbicide No.1 0.14 kg/ha + Herbicide No.13 2.24 kg/ha, antidote rate 2.24 kg/ha
[22] = Herbicide No.1 0.14 kg/ha + Herbicide No.13 2.24 kg/ha, antidote rate 8.96 kg/ha
[23] = Herbicide No.1 0.56 kg/ha + Herbicide No.13 2.24 kg/ha, antidote rate 2.24 kg/ha
[24] = Herbicide No.1 0.56 kg/ha + Herbicide No.13 2.24 kg/ha, antidote rate 8.96 kg/ha
[25] = Herbicide No.1 0.56 kg/ha + ERADICANE 8.96 kg/ha, antidote 2.24 kg/ha
[26] = Herbicide No.1 0.56 kg/ha + ERADICANE 8.96 kg/ha, antidote 8.96 kg/ha
[27] = Herbicide No.1 1.12 kg/ha + ERADICANE 8.96 kg/ha, antidote 2.24 kg/ha
[28] = Herbicide No.1 1.12 kg/ha + ERADICANE 8.96 kg/ha, antidote 8.96 kg/ha
[29] = Herbicide No.1 0.56 kg/ha + ERADICANE EXTRA 8.96 kg/ha, antidote 2.24 kg/ha
[30] = Herbicide No.1 0.56 kg/ha + ERADICANE EXTRA 8.96 kg/ha, antidote 8.96 kg/ha
[31] = Herbicide No.1 1.12 kg/ha + ERADICANE EXTRA 8.96 kg/ha, antidote 2.24 kg/ha
[32] = Herbicide No.1 1.12 kg/ha + ERADICANE EXTRA 8.96 kg/ha, antidote 8.96 kg/ha

| Compound | % Injury VL [1, 9] [%] | % Injury VL [1, 10] [%] | % Injury VL [1, 11] [%] | % Injury VL [1, 12] [%] | % Injury Corn (corn [2]; [13]) [%] | % Injury Corn (corn [2]; [14]) [%] | % Injury Corn (corn [2]; [15]) [%] | % Injury Corn (corn [2]; [16]) [%] | % Injury BYG [3, 17] [%] | % Injury BYG [3, 18] [%] | % Injury BYG [3, 19] [%] | % Injury BYG [3, 20] [%] | % Injury VL [4, 17] [%] | % Injury VL [4, 18] [%] | % Injury VL [4, 19] [%] | % Injury VL [4, 20] [%] | % Injury Corn (corn [5]; [21]) [%] | % Injury Corn (corn [5]; [22]) [%] | % Injury Corn (corn [5]; [23]) [%] | % Injury Corn (corn [5]; [24]) [%] | other results |
| --- | --- | --- | --- | --- | --- | --- | --- | --- | --- | --- | --- | --- | --- | --- | --- | --- | --- | --- | --- | --- | --- |
| CC1(C(Cl)Cl)OCCO1 [compound 13] | 85 | 85 | 90 | 95 | 0 | 0 | 10 | 10 | 100 | 100 | 100 | 100 | 75 | 65 | 90 | 90 | 10 | 0 | 25 | 20 | % Injury Corn (corn [6]; [25]): 10%; % Injury Corn (corn [6]; [26]): 20%; % Injury Corn (corn [6]; [27]): 10%; % Injury Corn (corn [6]; [28]): 40%; % Injury BYG [7, 29]: 90%; % Injury BYG [7, 30]: 90%; % Injury BYG [7, 31]: 90%; % Injury BYG [7, 32]: 95%; % Injury VL [8, 29]: 65%; % Injury VL [8, 30]: 70%; % Injury VL [8, 31]: 80%; % Injury VL [8, 32]: 85% |
| CC1(C)OC(c2ccco2)CN1C(=O)C(Cl)Cl (stereo not shown) [compound 15] | 90 | 90 | 85 | 85 | 0 | 10 | 15 | 15 | 100 | 100 | 100 | 100 | 80 | 65 | 90 | 95 | 5 | 0 | 15 | 5 | % Injury Corn (corn [6]; [25]): 25%; % Injury Corn (corn [6]; [26]): 25%; % Injury Corn (corn [6]; [27]): 15%; % Injury Corn (corn [6]; [28]): 30%; % Injury BYG [7, 29]: 90%; % Injury BYG [7, 30]: 85%; % Injury BYG [7, 31]: 85%; % Injury BYG [7, 32]: 90%; % Injury VL [8, 29]: 70%; % Injury VL [8, 30]: 75%; % Injury VL [8, 31]: 85%; % Injury VL [8, 32]: 75% |
